Test results taken from patent US11013696B2, “Lipids and lipid compositions for the delivery of active agents” (Novartis AG, priority 2013, dated 2021).

Tested on: Factor VII
Assay: Mouse Factor VII dosing and plasma Factor VII activity assay (FVII siRNA LNP, IV)
Format: in vivo
Details: 0.03 mpk, XXX mice
Experimental: Female CD-1 mice were received from Harlan Labs and maintained on standard lab chow and water ad libitum. The animals weighed approximately 25 gr at time of dosing. Formulated Factor VII siRNA was administered as a single dose intravenously via the lateral tail vein. Approximately 48 hours after injection, the mice were euthanized by CO2 inhalation followed by exsanguination through the vena cava.
Plasma collected from injected mice was assayed for Factor VII enzyme activity using the Biophen FVII kit from Hyphen Biomedical (catalog number 221304). An assay standard curve was prepared using pooled plasma aliquots from the vehicle control animals. All samples were diluted to fall within the linear range of the standard curve and Factor VII activity relative to control plasma was reported.
Lipid nanoparticles comprising lipid compounds of formula (I) and the FVII siRNA duplex sequence listed above were tested in the Factor VII Activity Assay. The results of this assay are given in Table 34 below as a percent knock down of plasma Factor VII enzyme activity at a dose of 0.3 mg/kg and 0.03 mg/kg.

CCCCC/C=C\C/C=C\CCCCCCCC(=O)OCC(COC(=O)CCCCCCC/C=C\C/C=C\CCCCC)OC(=O)CCC(CCCCCCCCCCCC)OC(=O)OCCCN(C)C (stereo not shown) [Example 80, (9Z,9′Z,12Z,12′Z)-2-((4-(((3-(dimethylamino)propoxy)carbonyl)oxy)hexadecanoyl)oxy)propane-1,3-diyl bis(octadeca-9,12-dienoate)]
FVII knock-down following IV injection of encapsulated siRNA: 95%/0.03
